# In article PMC10067956, “Pyrazole derivatives of pyridine and naphthyridine as proapoptotic agents in cervical and breast cancer cells” (Scientific Reports, 2023):
# Read-outs that look alike come from different tables or passages of the source.
# Assays:
# [1] = tested on: HeLa cells; assay: MTT cell viability assay, HeLa; format: cell-based; conditions: 24 h; for inhibition at 100 µM: read-out: %Inhibition at 100 µM, HeLa cell line; for IC50: read-out: IC50 (µM) ± SEM, HeLa Cell Line
# Experimental: (§1) The anti-proliferative activity of the studied compounds was determined against breast (MCF-7) and cervical (HeLa) cancer cells by the MTT cell viability assay as described earlier[44],[45]. BHK-21 cells were used as non-cancerous cells to study the effect of these compounds on normal cells. Briefly, 1 × 10^4 cells/well were seeded in 96-well microtiter plate and placed in an incubator (Heracell™ VIOS 160i, Thermo-Fisher Scientific) set for 5% CO2 at 37 °C. The stock solutions of compounds were prepared at 10 mM concentration in DMSO. Initial working solutions were prepared in cell culture medium at 1 mM concentration. […] After 24 h, medium in each well was aspirated and cells were treated for 4 h with serum free medium containing 0.2 mg/mL MTT reagent. The solubilizing reagent (10% acidified sodium dodecyl sulfate in propanol in a 1:1 ratio) was added to solubilize formazan crystals. Plates were kept at 37 °C for 30 min and then placed on a gyratory shaker for few min for complete solubilization of formazan crystals. The optical density was measured at 570 nm by microplate reader and IC50 values were calculated from three independent experiments as previously reported.
# [2] = tested on: MCF-7 cells; assay: MTT cell viability assay, MCF-7; format: cell-based; conditions: for inhibition at 100 µM: MCF7, 100 µM, read-out: %Inhibition at 100 µM, MCF-7 cell line; for IC50: read-out: IC50 (µM) ± SEM, MCF-7 cell line
# Experimental: as §1
# [3] = tested on: BHK-21 cells; assay: MTT cell viability assay, non-cancerous BHK-21; format: cell-based, Baby Hamster; conditions: 24 h, read-out: IC50 (µM) ± SEM, BHK-21 cell line
# Experimental: as §1
# [4] = tested on: HeLa cells; assay: Alkaline comet assay; format: cell-based; conditions: 5j 6.4 µM 24 h
# Experimental: Comet assay is a sensitive method to determine DNA damage which was performed after some modifications in a published protocol. […] The cervical cancer (HeLa) cells were treated with IC50 value of potent compound 5j for 24 h. Cells were harvested, collected and centrifuged to obtain a pellet. Pelleted cells were re-suspended in media. Untreated cells were used as control cells. For the positive control, 2 × 10^4 cells were treated with 20 µM of freshly prepared hydrogen peroxide for 30 min. Slides were prepared by coating with 1% normal melting point agarose (NMPA) on one side and then dried. Samples (2 × 10^4 cells/sample) were re-suspended in 1 mL of PBS. In a tube, 0.4 mL cell suspension was mixed with 1.2 mL of 0.9% low melting point agarose (LMPA) and mixed thoroughly by pipetting. A cell suspension of 65 µL was laid on coated slide and evenly distributed by placing a coverslip over it. Slides were placed at − 20 °C for 10 min. Then the slides were placed at 4 °C in the dark in a lysis buffer of 100 mM EDTA, 10 mM Trizma base, 2.5 M sodium chloride, 10% DMSO and 1% Triton X-100 in distilled water with a pH of 10. After an overnight incubation, slides were washed with chilled distilled water. These slides were then placed in electrophoresis chamber (Wealtec, USA) having chilled (4 °C) alkali unwinding solution (300 mM sodium hydroxide and 1 mM EDTA in distilled water). Electrophoresis was carried out at an adjusted voltage (between 0.7 and 1.0 V/cm) for 35 min in an electrophoresis tank. Slides were then immersed in neutralization solution (0.4 M Trizma base in 800 mL water, pH 7.5) for 10 min in dark. Propidium iodide (20 µL of 0.01 mg/mL) was used as fluorescent dye to stain DNA. Slides were placed in dark at room temperature. After 10 min, images were captured using a fluorescence microscope (Nikon ECLIPSE Ni–U, Japan) at an excitation/emission wavelength of 493/632 nm. Microscopic images were analyzed using ImageJ (ij152-win-java8, National Institutes of Health, Bethesda, USA) and OpenComet (OpenComet_imagej_v1.3.1, USA) where the DNA content in the head and tail of the comets were automatically measured by the software. Results of three independent experiments were expressed as tail length ([…]), %DNA in comet tail and comet tail moment.
smiles,measurement,setting,value
N#CC1=C(N)Nc2n[nH]cc2C12C(=O)Nc1ccccc12 (centres unmarked) [4a],inhibition at 100 µM,[1]; Homo sapiens,34.5%
same,inhibition at 100 µM,"[2]; Homo sapiens, 24 h",28.2%
Cc1ccc2c(c1)C1(C(=O)N2)C(C#N)=C(N)Nc2n[nH]cc21 (centres unmarked) [4b],inhibition at 100 µM,[1]; Homo sapiens,45.9%
same,inhibition at 100 µM,"[2]; Homo sapiens, 24 h",1.86%
N#CC1=C(N)Nc2n[nH]cc2C12C(=O)Nc1ccc(F)cc12 (centres unmarked) [4c],"%Inhibition at 100 µM, HeLa cell line",[1],57.80%
same,inhibition at 100 µM,[1]; Homo sapiens,> 50%
same,IC50,[1]; Homo sapiens,90.2 ± 2.18 µM
same,inhibition at 100 µM,"[2]; Homo sapiens, 24 h",26.8%
same,IC50,[3]; Mesocricetus auratus,49.2 ± 2.01 µM
N#CC1=C(N)Nc2n[nH]cc2C12C(=O)Nc1ccc(Cl)cc12 (centres unmarked) [4d],"%Inhibition at 100 µM, HeLa cell line",[1],99.45%
same,IC50,[1]; Homo sapiens,51.6 ± 0.99 µM
same,inhibition at 100 µM,"[2]; Homo sapiens, 24 h",18.9%
same,IC50,[3]; Mesocricetus auratus,246 ± 6.71 µM
N#CC1=C(N)Nc2n[nH]cc2C12C(=O)Nc1ccc(Br)cc12 (centres unmarked) [4e],inhibition at 100 µM,[1]; Homo sapiens,24.9%
same,inhibition at 100 µM,"[2]; Homo sapiens, 24 h",7.24%
N#CC1=C(N)Nc2n[nH]cc2C12C(=O)Nc1ccc([N+](=O)[O-])cc12 (centres unmarked) [4f],inhibition at 100 µM,[1]; Homo sapiens,26.2%
same,inhibition at 100 µM,"[2]; Homo sapiens, 24 h",5.23%
N#CC1=C(N)Nc2n[nH]cc2C12C(=O)Nc1ccc(OC(F)(F)F)cc12 (centres unmarked) [4g],inhibition at 100 µM,[1]; Homo sapiens,38.6%
same,inhibition at 100 µM,"[2]; Homo sapiens, 24 h",15.2%
Cc1[nH]nc2c1C1(C(=O)Nc3ccccc31)C(C#N)=C(N)N2 (centres unmarked) [4h],inhibition at 100 µM,[1]; Homo sapiens,5.08%
same,inhibition at 100 µM,"[2]; Homo sapiens, 24 h",2.38%
Cc1ccc2c(c1)C1(C(=O)N2)C(C#N)=C(N)Nc2n[nH]c(C)c21 (centres unmarked) [4i],inhibition at 100 µM,[1]; Homo sapiens,39.7%
same,inhibition at 100 µM,"[2]; Homo sapiens, 24 h",1.42%
Cc1[nH]nc2c1C1(C(=O)Nc3ccc(F)cc31)C(C#N)=C(N)N2 (centres unmarked) [4j],inhibition at 100 µM,[1]; Homo sapiens,5.68%
same,inhibition at 100 µM,"[2]; Homo sapiens, 24 h",2.22%
Cc1[nH]nc2c1C1(C(=O)Nc3ccc(Cl)cc31)C(C#N)=C(N)N2 (centres unmarked) [4k],inhibition at 100 µM,[1]; Homo sapiens,3.84%
same,inhibition at 100 µM,"[2]; Homo sapiens, 24 h",11.9%
Cc1[nH]nc2c1C1(C(=O)Nc3ccc(Br)cc31)C(C#N)=C(N)N2 (centres unmarked) [4l],inhibition at 100 µM,[1]; Homo sapiens,39.3%
same,inhibition at 100 µM,"[2]; Homo sapiens, 24 h",1.78%
Cc1[nH]nc2c1C1(C(=O)Nc3ccc([N+](=O)[O-])cc31)C(C#N)=C(N)N2 (centres unmarked) [4m],inhibition at 100 µM,[1]; Homo sapiens,22.7%
same,inhibition at 100 µM,"[2]; Homo sapiens, 24 h",23.3%
Cc1[nH]nc2c1C1(C(=O)Nc3ccc(OC(F)(F)F)cc31)C(C#N)=C(N)N2 (centres unmarked) [4n],inhibition at 100 µM,[1]; Homo sapiens,27.8%
same,inhibition at 100 µM,"[2]; Homo sapiens, 24 h",0.15%
Nc1nc2ccccc2c2c1c(N)nc1n[nH]cc12 [5a],inhibition at 100 µM,[1]; Homo sapiens,97.9%
same,IC50,[1]; Homo sapiens,58.91 ± 0.39 µM
same,inhibition at 100 µM,"[2]; Homo sapiens, 24 h",46.4%
same,IC50,[3]; Mesocricetus auratus,177 ± 6.11 µM
Cc1ccc2nc(N)c3c(N)nc4n[nH]cc4c3c2c1 [5b],inhibition at 100 µM,[1]; Homo sapiens,98.4%
same,IC50,[1]; Homo sapiens,32.1 ± 1.14 µM
same,inhibition at 100 µM,"[2]; Homo sapiens, 24 h",96.4%
same,IC50,"[2]; Homo sapiens, MCF7, 24 h",41.4 ± 0.47 µM
same,IC50,[3]; Mesocricetus auratus,126 ± 1.63 µM
Nc1nc2ccc(F)cc2c2c1c(N)nc1n[nH]cc12 [5c],inhibition at 100 µM,[1]; Homo sapiens,69.2%
same,IC50,[1]; Homo sapiens,10.3 ± 0.51 µM
same,inhibition at 100 µM,"[2]; Homo sapiens, 24 h",4.12%
same,IC50,[3]; Mesocricetus auratus,42.4 ± 1.95 µM
Nc1nc2ccc(Cl)cc2c2c1c(N)nc1n[nH]cc12 [5d],inhibition at 100 µM,[1]; Homo sapiens,71.4%
same,IC50,[1]; Homo sapiens,40.7 ± 1.42 µM
same,inhibition at 100 µM,"[2]; Homo sapiens, 24 h",27.3%
same,IC50,[3]; Mesocricetus auratus,166.8 ± 0.95 µM
Nc1nc2ccc(Br)cc2c2c1c(N)nc1n[nH]cc12 [5e],inhibition at 100 µM,[1]; Homo sapiens,98.3%
same,IC50,[1]; Homo sapiens,30.2 ± 1.15 µM
same,inhibition at 100 µM,"[2]; Homo sapiens, 24 h",96.8%
same,IC50,"[2]; Homo sapiens, MCF7, 24 h",18.6 ± 0.29 µM
same,IC50,[3]; Mesocricetus auratus,84.1 ± 3.31 µM
Nc1nc2ccc([N+](=O)[O-])cc2c2c1c(N)nc1n[nH]cc12 [5f],IC50,[1]; Homo sapiens,69.1 ± 0.99 µM
same,inhibition at 100 µM,"[2]; Homo sapiens, 24 h",9.54%
same,IC50,[3]; Mesocricetus auratus,101 ± 2.61 µM
Nc1nc2ccc(OC(F)(F)F)cc2c2c1c(N)nc1n[nH]cc12 [5g],inhibition at 100 µM,[1]; Homo sapiens,61.3%
same,inhibition at 100 µM,"[2]; Homo sapiens, 24 h",31.4%
Cc1[nH]nc2nc(N)c3c(N)nc4ccccc4c3c12 [5h],inhibition at 100 µM,[1]; Homo sapiens,93.6%
same,IC50,[1]; Homo sapiens,14.4 ± 1.21 µM
same,inhibition at 100 µM,"[2]; Homo sapiens, 24 h",37.8%
same,IC50,[3]; Mesocricetus auratus,31.4 ± 1.33 µM
Cc1ccc2nc(N)c3c(N)nc4n[nH]c(C)c4c3c2c1 [5i],inhibition at 100 µM,[1]; Homo sapiens,63.5%
same,IC50,[1]; Homo sapiens,61.9 ± 1.76 µM
same,inhibition at 100 µM,"[2]; Homo sapiens, 24 h",58.2%
same,IC50,"[2]; Homo sapiens, MCF7, 24 h",54.7 ± 0.63 µM
same,IC50,[3]; Mesocricetus auratus,134 ± 1.71 µM
Cc1[nH]nc2nc(N)c3c(N)nc4ccc(Br)cc4c3c12 [5l],inhibition at 100 µM,[1]; Homo sapiens,81.6%
same,IC50,[1]; Homo sapiens,38.5 ± 0.63 µM
same,inhibition at 100 µM,"[2]; Homo sapiens, 24 h",28.2%
same,IC50,[3]; Mesocricetus auratus,152 ± 2.61 µM
Cc1[nH]nc2nc(N)c3c(N)nc4ccc([N+](=O)[O-])cc4c3c12 [5m],inhibition at 100 µM,[1]; Homo sapiens,44.9%
same,inhibition at 100 µM,"[2]; Homo sapiens, 24 h",10.3%
Cc1[nH]nc2nc(N)c3c(N)nc4ccc(OC(F)(F)F)cc4c3c12 [5n],inhibition at 100 µM,[1]; Homo sapiens,63.2%
same,IC50,[1]; Homo sapiens,32.7 ± 2.16 µM
same,inhibition at 100 µM,"[2]; Homo sapiens, 24 h",10.5%
same,IC50,[3]; Mesocricetus auratus,46.6 ± 1.03 µM
"N.N.[Cl][Pt][Cl] [Cisplatin, reference compound]","%Inhibition at 100 µM, HeLa cell line",[1],98.63%
same,IC50,[1],11.3 ± 0.78 µM
same,"%Inhibition at 100 µM, MCF-7 cell line","[2]; 100 µM, 24 h",73.12%
same,IC50,[2]; 24 h,6.22 ± 0.72 µM
same,IC50,[3],24.7 ± 0.37 µM
"OO [H2O2, Hydrogen Peroxide, reference compound]",%DNA in tail ± SD,[4],55.11 ± 0.68%
same,Tail length ± SD,[4]; H2O2 20 µM 30 min (positive control),84.14 ± 3.43 µM
